# US11932636B2, “RAD51 inhibitors” (Cyteir Therapeutics, Inc., priority 2019, dated 2024)
# Tested on: Daudi cells (AID positive)
# Experiment: Compound primary screening: cell death in AID positive Daudi cells (Cell-Titer Glo, Day 7)
# Assay type: cell-based
# Details: Homo sapiens, 168 h; Daudi cells, AID positive; cell death on Day 7, Cell-Titer Glo; read-out: Cellular activity in AID + (Daudi)
# Summary of the method: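 AID-positive Daudi cells were seeded at 1250 cells per well and treated with serially diluted compound delivered from a DMSO/media master plate. Cultures were incubated at 37 °C, and cell death was measured on Day 7 with Cell-Titer Glo luminescence.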
row,Structure (SMILES),EC50
1,"CCNS(=O)(=O)c1cc(Nc2ccc(Cl)nn2)ccc1-c1cnc([C@H]2CC[C@H](NC(=O)OC(C)C)CC2)s1 [Compound 159, isopropyl trans-N-[4-[5-[4-[(6-chloropyridazin-3-yl)amino]-2-(ethylsulfamoyl)phenyl]thiazol-2-yl]cyclohexyl]carbamate]",< 100 nM
2,"CCNS(=O)(=O)c1cc(Nc2ccc(=O)[nH]n2)ccc1-c1cnc([C@H]2CC[C@H](NC(=O)OC(C)C)CC2)s1 [Compound 160, isopropyl trans-N-[4-[5-[2-(ethylsulfamoyl)-4-[(6-oxo-1H-pyridazin-3-yl)amino]phenyl]thiazol-2-yl]cyclohexyl]carbamate]",100 to 1000 nM
3,"CCNS(=O)(=O)c1cc(Nc2cc(C)cnn2)ccc1-c1cnc([C@H]2CC[C@H](NC(=O)OC(C)C)CC2)s1 [Compound 161, isopropyl trans-N-[4-[5-[2-(ethylsulfamoyl)-4-[(5-methylpyridazin-3-yl)amino]phenyl]thiazol-2-yl]cyclohexyl]carbamate]",< 100 nM
4,"CCNS(=O)(=O)c1cc(Nc2ccc(C)nn2)ccc1-c1cnc([C@H]2CC[C@H](NC(=O)OC(C)C)CC2)s1 [Compound 162, isopropyl trans-N-[4-[5-[2-(ethylsulfamoyl)-4-[(6-methylpyridazin-3-yl)amino]phenyl]thiazol-2-yl]cyclohexyl]carbamate]",< 100 nM
5,"CCNS(=O)(=O)c1cc(Nc2cnc(C(C)C)cn2)ccc1-c1cnc([C@H]2CC[C@H](NC(=O)OC(C)C)CC2)s1 [Compound 163, isopropyl trans-N-[4-[5-[2-(ethylsulfamoyl)-4-[(5-isopropylpyrazin-2-yl)amino]phenyl]thiazol-2-yl]cyclohexyl]carbamate]",100 to 1000 nM
6,"CCNS(=O)(=O)c1cc(Nc2cc(C(C)C)cnn2)ccc1-c1cnc([C@H]2CC[C@H](NC(=O)OC(C)C)CC2)s1 [Compound 164, isopropyl trans-N-[4-[5-[2-(ethylsulfamoyl)-4-[(5-isopropylpyridazin-3-yl)amino]phenyl]thiazol-2-yl]cyclohexyl]carbamate]",100 to 1000 nM
7,"CCNS(=O)(=O)c1cc(NC2(C)COC2)ccc1-c1cnc([C@H]2CC[C@H](NC(=O)OC)CC2)s1 [Compound 165, methyl trans-N-[4-[5-[2-(ethylsulfamoyl)-4-[(3-methyl-oxetan-3-yl)amino]phenyl]thiazol-2-yl]cyclohexyl]carbamate]",1000 to 10000 nM
8,"CCNS(=O)(=O)c1cc(Nc2cn[nH]c2)ccc1-c1cnc([C@H]2CC[C@H](NC(=O)OC)CC2)s1 [Compound 166, methyl trans-N-[4-[5-[2-(ethylsulfamoyl)-4-[(1H-pyrazol-4-yl)amino]phenyl]thiazol-2-yl]cyclohexyl]carbamate]",1000 to 10000 nM
9,"CCNS(=O)(=O)c1cc(Nc2ccn[nH]2)ccc1-c1cnc([C@H]2CC[C@H](NC(=O)OC)CC2)s1 [Compound 167, methyl trans-N-[4-[5-[2-(ethylsulfamoyl)-4-[(1H-pyrazol-5-yl)amino]phenyl]thiazol-2-yl]cyclohexyl]carbamate]",100 to 1000 nM
10,"CCNS(=O)(=O)c1cc(Nc2ccnn2C(C)C)ccc1-c1cnc([C@H]2CC[C@H](NC(=O)OC(C)(C)C)CC2)s1 [Compound 170, tert-butyl trans-N-[4-[5-[2-(ethylsulfamoyl)-4-[(2-isopropylpyrazol-3-yl)amino]phenyl]thiazol-2-yl]cyclohexyl]carbamate]",100 to 1000 nM
11,"CCNS(=O)(=O)c1cc(Nc2cc(C(C)C)ncn2)ccc1-c1cnc([C@H]2CC[C@H](NC(=O)OC(C)C)CC2)s1 [Compound 171, isopropyl trans-N-[4-[5-[2-(ethylsulfamoyl)-4-[(6-isopropylpyrimidin-4-yl)amino]phenyl]thiazol-2-yl]cyclohexyl]carbamate]",100 to 1000 nM
12,"CCNS(=O)(=O)c1cc(Nc2ccc(=O)n(C)n2)ccc1-c1cnc([C@H]2CC[C@H](NC(=O)OC(C)C)CC2)s1 [Compound 172, isopropyl trans-N-[4-[5-[2-(ethylsulfamoyl)-4-[(1-methyl-6-oxo-pyridazin-3-yl)amino]phenyl]thiazol-2-yl]cyclohexyl]carbamate]",100 to 1000 nM
13,"CC(C)OC(=O)N[C@H]1CC[C@H](c2ncc(-c3ccc(Nc4ccc(Cl)nn4)cc3S(=O)(=O)NC(C)(C)C)s2)CC1 [Compound 173, isopropyl trans-N-[4-[5-[2-(tert-butylsulfamoyl)-4-[(6-chloropyridazin-3-yl)amino]phenyl]thiazol-2-yl]cyclohexyl]carbamate]",100 to 1000 nM
14,"CC(C)OC(=O)N[C@H]1CC[C@H](c2ncc(-c3ccc(Nc4cccnn4)cc3S(=O)(=O)NC(C)(C)C)s2)CC1 [Compound 174, isopropyl trans-N-[4-[5-[2-(tert-butylsulfamoyl)-4-(pyridazin-3-ylamino)phenyl]thiazol-2-yl]cyclohexyl]carbamate]",100 to 1000 nM
